Read-outs that look alike come from different tables or passages of the source.
How the values were obtained:
HRV 14 [1] = test: residual infectiousness (TCID50/ml) by virus titration, HeLa cells infected with HRV 14; format: cell-based, human rhinovirus; details: HRV 14, HeLa cells
MDCK cells = details: dog
HRV 14 [2] = test: plaque reduction assay, HeLa cells infected with HRV 14; format: cell-based, human rhinovirus; details: for Plaque reduction rel. inhibition: HRV 14, HeLa cells, M.O.I. 0.0004; for Rel. total inhibition: HRV 14, plaque reduction and residual infectiousness combined
HRV 2 = format: cell-based, human rhinovirus; details: HRV 2, HeLa cells, 72 hours after infection
HRV 14 [3] = test: high-throughput cytopathic effect inhibitory assay (CPE), HeLa cells infected with HRV 14; format: cell-based, human rhinovirus; details: HRV 14, HeLa cells, second series of experiments
influenza A virus = format: cell-based; details: MDCK cells
[4] = dilution 1:2 of 0.003125% (W/V)
[5] = dilution 1:4 of 0.003125% (W/V)
[6] = dilution 1:8 of 0.003125% (W/V)
[7] = dilution 1:16 of 0.003125% (W/V)
[8] = dilution 1:32 of 0.003125% (W/V)

## Cc1cc(C(C)(C)C)c(O)c(C)c1CC1=NCCN1 [oxymetazoline]
HRV 14 [1]; [4]
  Residual infectiousness rel. inhibition: 33.33%
HRV 14 [1]; [5]
  Residual infectiousness rel. inhibition: 20.83%
HRV 14 [1]; [6]
  Residual infectiousness rel. inhibition: 18.75%
HRV 14 [1]; [7]
  Residual infectiousness rel. inhibition: 18.75%
HRV 14 [1]; [8]
  Residual infectiousness rel. inhibition: 12.50%
MDCK cells
  active-ingredient concentration at which no effects which reduce the metabolism of the cells arise (non-cytotoxic concentration): 0.005 % (W/V)
HRV 14 [2]; [4]
  Plaque reduction rel. inhibition: 44.26%
  Rel. total inhibition: 38.79
HRV 14 [2]; [5]
  Plaque reduction rel. inhibition: 32.98%
  Rel. total inhibition: 26.91
HRV 14 [2]; [6]
  Plaque reduction rel. inhibition: 25.74%
  Rel. total inhibition: 22.25
HRV 14 [2]; [7]
  Plaque reduction rel. inhibition: 17.66%
  Rel. total inhibition: 18.20
HRV 14 [2]; [8]
  Plaque reduction rel. inhibition: 14.26%
  Rel. total inhibition: 13.38
HRV 2; [4]
  CPE inhibition: 40.5%
HRV 2; [5]
  CPE inhibition: 23.2%
HRV 14 [3]; [4]
  CPE inhibition: 50.5%
HRV 14 [3]; [5]
  CPE inhibition: 53.6%
HRV 14 [3]; [6]
  CPE inhibition: 37.5%
HRV 14 [3]; [7]
  CPE inhibition: 5.9%
Influenza A virus; dilution 1:2 of 0.005% (W/V)
  CPE inhibition: 52.8%
Influenza A virus; dilution 1:4 of 0.005% (W/V)
  CPE inhibition: 35.5%
Influenza A virus; dilution 1:8 of 0.005% (W/V)
  CPE inhibition: 23.1%
Influenza A virus; dilution 1:16 of 0.005% (W/V)
  CPE inhibition: 9.1%

— US20080108685A1, “Novel Use for Alpha Sympathomimetics Having a 2-Imidazoline Structure” (priority 2004, published 2008)
